Our source for the IC50 and Ki values is ChEMBL document CHEMBL2057181 (Bioorg Med Chem Lett, 2012).

The term IC50 denotes the midpoint of a concentration-inhibition curve. By Ki is commonly meant a measure of affinity in units of concentration, obtained from inhibition or displacement. Read a high Ki as a looser hold on the target.

A short description of assay [1]: Inhibition of Haemonchus contortus phosphoethanolamine methyltransferase2 conversion of phosphomonomethylethanolamine to phosphodimethylethanolamine by radiochemical assay in presence of S-adenosylmethionine.
Assay [2] can be described thus: Inhibition of Haemonchus contortus phosphoethanolamine methyltransferase1-mediated conversion of phosphoethanolamine to phosphomonomethylethanolamine by radiochemical assay in presence of S-adenosylmethionine.
In assay [3] the target is Histamine N-methyltransferase (Homo sapiens, UniProt P50135). The experiment in a line: Inhibition of histamine N-methyltransferase by radiochemical assay.
Sequence of Histamine N-methyltransferase (P50135 whole entry): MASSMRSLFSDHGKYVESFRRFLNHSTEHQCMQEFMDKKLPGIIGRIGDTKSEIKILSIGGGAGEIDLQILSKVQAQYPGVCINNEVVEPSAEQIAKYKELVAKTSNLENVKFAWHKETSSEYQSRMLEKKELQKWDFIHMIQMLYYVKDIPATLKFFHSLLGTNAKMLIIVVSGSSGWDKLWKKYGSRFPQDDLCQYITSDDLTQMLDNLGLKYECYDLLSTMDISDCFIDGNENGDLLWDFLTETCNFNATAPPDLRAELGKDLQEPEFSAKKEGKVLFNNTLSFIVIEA
Assay [4] addresses T1, Phosphoethanolamine N-methyltransferase (Plasmodium falciparum, UniProt Q8IDQ9).
T1 sequence (Q8IDQ9 whole entry): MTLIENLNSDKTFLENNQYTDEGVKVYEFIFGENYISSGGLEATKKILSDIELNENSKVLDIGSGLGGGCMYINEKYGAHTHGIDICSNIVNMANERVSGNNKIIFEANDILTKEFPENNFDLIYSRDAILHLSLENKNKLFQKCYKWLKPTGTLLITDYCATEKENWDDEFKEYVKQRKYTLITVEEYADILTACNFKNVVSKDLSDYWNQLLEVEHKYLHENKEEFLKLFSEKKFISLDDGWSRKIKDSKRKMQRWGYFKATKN
Briefly: Inhibition of Plasmodium falciparum phosphoethanolamine methyltransferase using phospethanolamine as substrate by radiochemical assay in presence of S-adenosylmethionine.

Take `CCN(CC)Cc1cc(Nc2ccnc3cc(Cl)ccc23)ccc1O`: the IC50 in assay [1] and in assay [2] was 3000 µM throughout. For the same compound, the inhibition constant (Ki) in assay [3] was 0.019 µM.
As to `COc1cc(NC(C)CCCN)c2ncccc2c1` (stereo not given) [PRIMAQUINE], in assay [4], the 50% inhibitory concentration (IC50) stood at 460 µM.
Same read-out and setting: the value for `CCN(CC)CCCC(C)Nc1ccnc2cc(Cl)ccc12` (stereo not given) [CHLOROQUINE] was 554 µM.
